Experimental findings from patent US7652003B2, “Macrocyclic β-secretase inhibitors” (Schering-Plough Corporation, priority 2004, dated 2010) are described below.

This assay deals with T1, sproBACE1 (soluble human BACE1) (Homo sapiens, UniProt P56817).
T1 construct: sBACE1, corresponding to amino acids 1-454; made in house; host or cells: Sf9 insect cells (baculovirus); purified from culture supernatant
Nature of the assay: Peptide hydrolysis assay (HTRF, EuK-biotin labeled APPsw substrate). The format is biochemical. As to conditions: 7 nM sproBACE1, pH 5.0, 3 hr at 30° C. From the text:
A predicted soluble form of human BACE1 (sBACE1, corresponding to amino acids 1-454) was generated from the full length BACE1 cDNA (full length human BACE1 cDNA in pcDNA4/mycHisA construct; University of Toronto) by PCR using the advantage-GC cDNA PCR kit (Clontech, Palo Alto, Calif.). A HindIII/Pmel fragment from pcDNA4-sBACE1 myc/His was blunt ended using Klenow and subcloned into the Stu I site of pFASTBACI(A) (Invitrogen). A sBACE1 mycHis recombinant bacmid was generated by transposition in DH10Bac cells(GIBCO/BRL). Subsequently, the sBACE1 mycHis bacmid construct was transfected into sf9 cells using CellFectin (Invitrogen, San Diego, Calif.) in order to generate recombinant baculovirus. Sf9 cells were grown in SF 900-II medium (Invitrogen) supplemented with 3% heat inactivated FBS and 0.5× penicillin/streptomycin solution (Invitrogen). Five milliliters of high titer plaque purified sBACEmyc/His virus was used to infect 1 L of logarithmically growing sf9 cells for 72 hours. Intact cells were pelleted by centrifugation at 3000×g for 15 minutes. The supernatant, containing secreted sBACE1, was collected and diluted 50% v/v with 100 mM HEPES, pH 8.0. The diluted medium was loaded onto a Q-sepharose column. The Q-sepharose column was washed with Buffer A (20 mM HEPES, pH 8.0, 50 mM NaCl).
Proteins, were eluted from the Q-sepharose column with Buffer B (20 mM HEPES, pH 8.0, 500 mM NaCl). The protein peaks from the Q-sepharose column were pooled and loaded onto a Ni-NTA agarose column. The Ni-NTA column was then washed with Buffer C (20 mM HEPES, pH 8.0, 500 mM NaCl). Bound proteins were then eluted with Buffer D (Buffer C+250 mM imidazole). Peak protein fractions as determined by the Bradford Assay (Biorad, Calif.) were concentrated using a Centricon 30 concentrator (Millipore). sBACE1 purity was estimated to be ˜90% as assessed by SDS-PAGE and Commassie Blue staining.
The inhibitor, 25 nM EuK-biotin labeled APPsw substrate (EuK-KTEEISEVNLDAEFRHDKC-biotin; CIS-Bio International, France), 5 μM unlabeled APPsw peptide (KTEEISEVNLDAEFRHDK; American Peptide Company, Sunnyvale, Calif.), 7 nM sproBACE1, 20 mM PIPES pH 5.0, 0.1% Brij-35 (protein grade, Calbiochem, San Diego, Calif.), and 10% glycerol were preincubated for 30 min at 30° C. […] HTRF measurements were made on a Packard Discovery® HTRF plate reader using 337 nm laser light to excite the sample followed by a 50 μs delay and simultaneous measurements of both 620 nm and 665 nm emissions for 400 μs.
IC50 determinations for inhibitors, (I), were determined by measuring the percent change of the relative fluorescence at 665 nm divided by the relative fluorescence at 620 nm, (665/620 ratio), in the presence of varying concentrations of I and a fixed concentration of enzyme and substrate. […]

[1] abbreviates: read-out: Activity (IC50 classification).

The structures appear in SMILES notation. Where two headings read alike, the source gives them in different places.

T1 sequence (P56817 22-454): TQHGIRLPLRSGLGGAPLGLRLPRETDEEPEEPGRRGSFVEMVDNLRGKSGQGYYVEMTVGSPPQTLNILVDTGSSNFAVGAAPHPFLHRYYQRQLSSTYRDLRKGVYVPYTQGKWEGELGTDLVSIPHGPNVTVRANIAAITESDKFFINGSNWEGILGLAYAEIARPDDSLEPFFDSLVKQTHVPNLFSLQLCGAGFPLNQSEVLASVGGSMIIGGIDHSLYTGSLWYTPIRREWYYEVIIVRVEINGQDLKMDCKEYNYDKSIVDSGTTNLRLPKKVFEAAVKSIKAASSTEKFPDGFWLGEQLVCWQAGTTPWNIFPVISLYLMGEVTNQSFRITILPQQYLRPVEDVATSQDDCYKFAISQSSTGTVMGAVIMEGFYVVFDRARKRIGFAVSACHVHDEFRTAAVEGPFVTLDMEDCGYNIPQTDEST

For the compound `O=C1N[C@H]([C@H](O)[C@@H]2NCCN(Cc3ccccc3)C2=O)Cc2cc(F)cc(c2)OCCCCN2CC1CC2=O` (stereo partly shown) [drawing 72], the IC50 under setting [1] fell in the range of 0.002 to 1 µM. Consider `CCCN1CCCCOc2cc(F)cc(c2)CC(C(O)C2NCCN(Cc3ccccc3)C2=O)NC(=O)c2cccc(c2)C1=O` (stereo not shown), for which the “Activity (IC50 classification)” value was “A or B”. Regarding `O=C1N[C@H]([C@H](O)[C@@H]2NCCN(Cc3ccccc3)C2=O)Cc2cc(F)cc(c2)OCCCCN2CC1CC2=O` (stereo partly shown) [drawing 69], where the note is “read-out: IC50”, the half-inhibitory concentration (IC50) was found to be 0.004 µM. In the case of `CCCN1CCCCOc2ccc(cc2)C[C@@H](C(O)C2NCCN(Cc3ccccc3)C2=O)NC(=O)c2cccc(c2)C1=O` (stereo partly shown), the IC50 under setting [1] was 1 to 10 µM.

By IC50 is commonly meant the concentration needed to halve the response being measured.
